The assay concerns the target T1, recombinant cGAS (aa147-522) (Homo sapiens, UniProt Q8N884).
T1 construct: recombinant cGAS (aa147-522); His6-SUMO (N, cleaved yes); made in house; host or cells: E. coli BL21/pLys
Briefly: In vitro assay for inhibition of cGAS activity (ATP consumption, Kinase Glo). To be noted: 37° C. 20 minutes, read-out: Activity (Inhibition of cGAS enzyme activity in vitro, IC50). The format is biochemical. Here is the method:
cDNA encoding full-length or amino acids 147-520 of human cGAS is inserted into a modified pET28a vector containing an in-frame His6-SUMO tag. The E. coli strain BL21/pLys harboring the plasmid is induced with 0.5 mM IPTG at 18° C. overnight. His6-SUMO tag was removed by a SUMO proease following purification of the HiS-SUMO-cGAS as described previously (Sun et al, 2013, Science 339, 786).
A40 μL mixture containing 1.5 ng/μL of recombinant cGAS (aa147-522) and serial dilutions of a test compound or DMSO was added to a 96-well plate and incubated at 37° C. for 20 minutes. At the end of reaction, 20 μL of Kinase Glo (Promega) was added and chemiluminescence measured with a luminometer. Inhibitory effect of a compound is evaluated by plotting percentage of ATP consumption against logarithm of compound concentrations. IC50 value was calculated using Graphpad (Sigma).
For orientation: Kinase-Glo measures the ATP left after a reaction by luminescence.

T1 sequence (Q8N884 147-522): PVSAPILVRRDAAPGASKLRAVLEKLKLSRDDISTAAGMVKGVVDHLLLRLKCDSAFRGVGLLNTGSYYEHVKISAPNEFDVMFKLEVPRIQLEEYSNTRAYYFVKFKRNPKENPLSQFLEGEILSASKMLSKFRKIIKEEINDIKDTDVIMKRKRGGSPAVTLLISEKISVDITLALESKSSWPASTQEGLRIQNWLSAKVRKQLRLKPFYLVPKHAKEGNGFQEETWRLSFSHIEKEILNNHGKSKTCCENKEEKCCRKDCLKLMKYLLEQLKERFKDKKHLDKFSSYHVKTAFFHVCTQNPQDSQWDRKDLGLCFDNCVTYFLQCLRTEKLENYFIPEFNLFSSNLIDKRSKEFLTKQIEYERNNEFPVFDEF

In the case of `CN1C(=O)S/C(=C\c2cc(OCC3CCN(C(=O)c4ccccc4)CC3)c(O)cc2Br)C1=O` [Ex127], the IC50 was 0.5 to 10 µM.

Regarding `CN1C(=O)S/C(=C\c2cc(OCC3CCN(C(=O)c4ccccn4)CC3)c(O)cc2Br)C1=O` [Ex128], the IC50 fell in the range of 0.5 to 10 µM.

Consider `CN1C(=O)S/C(=C\c2cc(OCC3CCN(C(=O)c4cccnc4)CC3)c(O)cc2Br)C1=O` [Ex129], for which the IC50 was in the range of 0.5 to 10 µM.

For `CN1C(=O)S/C(=C\c2cc(OCc3cncc(N)c3)c(O)cc2Br)C1=O` [Ex132], the 50% inhibitory concentration (IC50) was 0.5 to 10 µM.

Regarding `CN1C(=O)S/C(=C\c2cc(OCc3ccnc(N)c3)c(O)cc2Br)C1=O` [Ex133], the IC50 lay in the range of 0.5 to 10 µM.

Turning to `CN1C(=O)S/C(=C\c2cc(OCc3cc[nH]c(=O)c3)c(O)cc2Br)C1=O` [Ex134], the half-maximal inhibitory concentration (IC50) was 0.5 to 10 µM.

`CN1C(=O)S/C(=C\c2cc(OCc3ccn(-c4ccccc4)c(=O)c3)c(O)cc2Br)C1=O` [Ex136]: the half-inhibitory concentration (IC50) is 0.5 to 10 µM.

In the case of `CN1C(=O)S/C(=C\c2cc(OCc3ccnc(N)n3)c(O)cc2Br)C1=O` [Ex138], the IC50 lay in the range of 0.5 to 10 µM.

For the molecule `Cc1ncc(COc2cc(/C=C3\SC(=O)N(C)C3=O)c(Br)cc2O)cn1` [Ex142], the IC50 was at most 0.5 µM.

For the molecule `COc1ncc(COc2cc(/C=C3\SC(=O)N(C)C3=O)c(Br)cc2O)cn1` [Ex143], the IC50 was 0.5 to 10 µM.

With `CSc1ncc(COc2cc(/C=C3\SC(=O)N(C)C3=O)c(Br)cc2O)cn1` [Ex144], the 50% inhibitory concentration (IC50) lay within 0.5 to 10 µM.

With `CN1C(=O)S/C(=C\c2cc(OCc3cnc(-c4ccccc4)nc3)c(O)cc2Br)C1=O` [Ex145], the IC50 lay in the range of 0.5 to 10 µM.

For `CN1C(=O)S/C(=C\c2cc(OCc3cnc(-c4ccncc4)nc3)c(O)cc2Br)C1=O` [Ex146], the half-maximal inhibitory concentration (IC50) was at most 0.5 µM.

On to `CC(C)Nc1ncc(COc2cc(/C=C3\SC(=O)N(C)C3=O)c(Br)cc2O)cn1` [Ex150], for which the half-inhibitory concentration (IC50) fell in the range of 0.5 to 10 µM.

Turning to `CC(C)CNc1ncc(COc2cc(/C=C3\SC(=O)N(C)C3=O)c(Br)cc2O)cn1` [Ex151], the IC50 lay in the range of 0.5 to 10 µM.

For the molecule `CN1C(=O)S/C(=C\c2cc(OCc3cnc(NCc4ccccc4)nc3)c(O)cc2Br)C1=O` [Ex154], the IC50 is 0.5 to 10 µM.

Take `CN1C(=O)S/C(=C\c2cc(OCc3cnc(Nc4ccccc4)nc3)c(O)cc2Br)C1=O` [Ex158]: the IC50 fell in the range of 0.5 to 10 µM.

As for `CN1C(=O)S/C(=C\c2cc(OCc3cnc(Nc4cccnc4)nc3)c(O)cc2Br)C1=O` [Ex159], the IC50 lay within 0.5 to 10 µM.

For `CN1C(=O)S/C(=C\c2cc(OCc3cnc(Nc4ccncc4)nc3)c(O)cc2Br)C1=O` [Ex160], the IC50 was at most 0.5 µM.

Consider `CN1C(=O)S/C(=C\c2cc(OCc3cnc(NC(=O)c4ccncc4)nc3)c(O)cc2Br)C1=O` [Ex161], for which the IC50 is at most 0.5 µM.

As to `CN1C(=O)S/C(=C\c2cc(OCc3cnc(N(C)C)nc3)c(O)cc2Br)C1=O` [Ex162], the IC50 was at least 10 µM.

Consider `CN1C(=O)S/C(=C\c2cc(OCc3cnc(N4CCCC4)nc3)c(O)cc2Br)C1=O` [Ex163], for which the IC50 is at least 10 µM.

Take `CN1C(=O)S/C(=C\c2cc(OCc3cnc(N4CCCCC4)nc3)c(O)cc2Br)C1=O` [Ex164]: the half-inhibitory concentration (IC50) was at least 10 µM.

Take `CN1C(=O)S/C(=C\c2cc(OCc3cnc(N4CCOCC4)nc3)c(O)cc2Br)C1=O` [Ex166]: the IC50 is at least 10 µM.

Turning to `CN1CCN(c2ncc(COc3cc(/C=C4\SC(=O)N(C)C4=O)c(Br)cc3O)cn2)CC1` [Ex167], the IC50 fell in the range of 0.5 to 10 µM.

Regarding `CN1C(=O)S/C(=C\c2cc(OCc3cnc(-n4ccnc4)nc3)c(O)cc2Br)C1=O` [Ex168], the IC50 lay within 0.5 to 10 µM.

Regarding `CN1C(=O)S/C(=C\c2cc(OCc3cnc(-n4cccn4)nc3)c(O)cc2Br)C1=O` [Ex169], the IC50 was 0.5 to 10 µM.

With `CN1C(=O)S/C(=C\c2cc(OCc3cnc(N)nc3C(F)(F)F)c(O)cc2Br)C1=O` [Ex172], the half-maximal inhibitory concentration (IC50) was at most 0.5 µM.

Consider `CN1C(=O)S/C(=C\c2cc(OCc3cccc4cnccc34)c(O)cc2Br)C1=O` [Ex173], for which the half-maximal inhibitory concentration (IC50) was in the range of 0.5 to 10 µM.

On to `CN1C(=O)S/C(=C\c2cc(OCc3ccc4ncccc4c3)c(O)cc2Br)C1=O` [Ex174], for which the IC50 was at least 10 µM.

`CN1C(=O)S/C(=C\c2cc(OCc3ccc4cccnc4c3)c(O)cc2Br)C1=O` [Ex175]: the IC50 fell in the range of 0.5 to 10 µM.

On to `CN1C(=O)S/C(=C\c2cc(OCc3cncc4ccccc34)c(O)cc2Br)C1=O` [Ex176], for which the 50% inhibitory concentration (IC50) lay within 0.5 to 10 µM.

With `CN1C(=O)S/C(=C\c2cc(OCc3ccnc4ccccc34)c(O)cc2Br)C1=O` [Ex178], the half-maximal inhibitory concentration (IC50) is 0.5 to 10 µM.

`CN1C(=O)S/C(=C\c2cc(OCCc3ccncc3)c(O)cc2Br)C1=O` [Ex179]: the half-maximal inhibitory concentration (IC50) is 0.5 to 10 µM.

In the case of `Cc1ncc(C(C)Oc2cc(/C=C3\SC(=O)N(C)C3=O)c(Br)cc2O)cn1` (stereo not drawn) [Ex180], the concentration for half-maximal inhibition (IC50) was 0.5 to 10 µM.

Turning to `CC(Oc1cc(/C=C2\SC(=O)N(C)C2=O)c(Br)cc1O)c1cnc(NCCO)nc1` (stereo not drawn) [Ex181], the IC50 lay in the range of 0.5 to 10 µM.

Take `COCCNc1ncc(C(C)Oc2cc(/C=C3\SC(=O)N(C)C3=O)c(Br)cc2O)cn1` (stereo not drawn) [Ex182]: the IC50 lay within 0.5 to 10 µM.

Regarding `Cc1nc(N)ncc1C(C)Oc1cc(/C=C2\SC(=O)N(C)C2=O)c(Br)cc1O` (stereo not drawn) [Ex183], the IC50 is 0.5 to 10 µM.

As to `Cc1ncc(COc2cc(/C=C3\SC(=O)N(C)C3=O)c(Br)cc2O)cn1` [Ex186], the IC50 was 0.5 to 10 µM.

As for `CNc1ncc(COc2cc(/C=C3\SC(=O)N(C)C3=O)c(Br)c(F)c2O)cn1` [Ex187], the IC50 is at most 0.5 µM.

As to `CN1C(=O)S/C(=C\c2cc(OCc3cnc(NCc4ccccn4)nc3)c(O)c(F)c2Br)C1=O` [Ex188], the IC50 was 0.5 to 10 µM.

`CN1C(=O)S/C(=C\c2cc(OCc3cnc(NCc4ccncc4)nc3)c(O)c(F)c2Br)C1=O` [Ex190]: the IC50 is at most 0.5 µM.

`CN1C(=O)S/C(=C\c2cc(OCc3cnc(NC(=O)c4ccncc4)nc3)c(O)c(F)c2Br)C1=O` [Ex191]: the 50% inhibitory concentration (IC50) is at most 0.5 µM.

Take `CC(Oc1cc(/C=C2\SC(=O)N(C)C2=O)c(Br)c(F)c1O)c1cncnc1` (stereo not drawn) [Ex192]: the IC50 lay within 0.5 to 10 µM.

Turning to `O=C1/C(=C/c2cc(OCc3cnc(NCc4ccccn4)nc3)c(O)cc2Br)Sc2ncccc21` [Ex198], the half-maximal inhibitory concentration (IC50) was at most 0.5 µM.

For `O=C1/C(=C/c2cc(OCc3cnc(NCc4cccnc4)nc3)c(O)cc2Br)Sc2ncccc21` [Ex199], the IC50 is at most 0.5 µM.

Consider `COc1cc(/C=C2\SC(=O)N(C)C2=O)c(Br)cc1Oc1nncs1` [Ex201], for which the half-maximal inhibitory concentration (IC50) was 0.5 to 10 µM.

`COc1cc(/C=C2\SC(=O)N(C)C2=O)c(Br)cc1Oc1ccncc1` [Ex202]: the IC50 was 0.5 to 10 µM.

Regarding `COc1cc(/C=C2\SC(=O)N(C)C2=O)c(Br)cc1OCc1ccncc1` [Ex203], the IC50 fell in the range of 0.5 to 10 µM.

Consider `COc1cc(/C=C2\SC(=O)N(C)C2=O)c(Br)cc1Oc1ccnc2ccccc12` [Ex204], for which the half-maximal inhibitory concentration (IC50) lay in the range of 0.5 to 10 µM.

For `COc1cc(/C=C2\SC(=O)N(C)C2=O)c(C#N)cc1O` [Ex205], the IC50 fell in the range of 0.5 to 10 µM.

As for `COc1cc(/C=C2\SC(=O)N(C)C2=O)c(Br)cc1Oc1cnc(NCc2ccncc2)s1` [Ex206], the concentration for half-maximal inhibition (IC50) is 0.5 to 10 µM.

With `COc1cc(/C=C2\SC(=O)N(C)C2=O)c(Br)cc1Oc1cnc(NCc2cccnc2)s1` [Ex207], the half-maximal inhibitory concentration (IC50) lay in the range of 0.5 to 10 µM.

On to `CN1C(=O)S/C(=C\c2cc3c(Cc4cnc(N)nc4)c[nH]c3cc2Br)C1=O` [Ex208], for which the half-inhibitory concentration (IC50) was 0.5 to 10 µM.

Turning to `CN1CCC(c2ncc(COc3cc(/C=C4\SC(=O)N(C)C4=O)c(Br)cc3O)cn2)CC1` [Ex209], the half-maximal inhibitory concentration (IC50) fell in the range of 0.5 to 10 µM.

In the case of `CN1C(=O)S/C(=C\c2cc(C(C)(F)F)c(O)cc2Br)C1=O` [Ex210], the IC50 fell in the range of 0.5 to 10 µM.

For `COc1nc([S+](C)[O-])ncc1COc1cc(/C=C2\SC(=O)N(C)C2=O)c(Br)cc1O` (stereo not drawn) [Ex212], the IC50 was in the range of 0.5 to 10 µM.

A word on the IC50: it is the concentration that gives 50% inhibition.

These data come from patent publication US12065416B2, “cGAS antagonist compounds” (IMMUNESENSOR THERAPEUTICS, INC., priority 2016, dated 2024).
